Results on nine compounds are retold here after patent publication US20040138301A1, “Chemical uncouplers for the treatment of obesity” (priority 2002, published 2004).

Assay [1] deals with FSK-4 cells. In words: Assay (IV): Glucose utilisation in FSK-4 cells. It is filed as cell-based. The note with it: FSK-4 cells; for EC50: glucose utilisation, 24 hours incubation, read-out: FSK4 EC50; for Emax: maximal efficacy relative to FCCP, read-out: FSK4 Emax (% of FCCP).
Assay [2] has as its system isolated mitochondria. In words: Assay (II): effect of chemical uncouplers on mitochondrial respiration using isolated mitochondria (oxygen consumption). It is filed as biochemical. On the procedure: Assay (II)—The Effect of Chemical Uncouplers on Mitochondrial Respiration Using Isolated Mitochondria.
This assay is used to investigate if the increase in glucose utilisation caused by the test compounds observed in the glucose utilisation assay is due to an increase in the respiration of the mitochondria. This is done by measuring oxygen consumption in isolated mitochondria.
A Clark oxygen electrode is used to determine the oxygen consumption. The isolated mitochondria are added to medium containing oxygen and nutrients (e.g. Succinate) and the rate of oxygen consumptions is measured, when stabilized a small amount of ADP is added to increase the respiration and an increase in the rate of oxygen consumption is measured. When the rate of oxygen consumption again has stabilized the test compound is added and a further increase in oxygen consumption is seen. This experiment is done with and without the addition of oligomycin which is an inhibitor of the ATP-synthase. Finally, the test compound is examined without adding ADP. If the test compound stimulates the rate of oxygen consumption in all setups, it is regarded as a chemical uncoupler.

Broadly, the EC50 is the concentration giving half of the maximal effect. The Emax is the greatest response seen or fitted, relative to the assay's reference. Turning to `N#CC(C#N)=NNc1ccc(OC(F)(F)F)cc1` [Example 27, Carbonylcyanide p-Trifluoromethoxy-Phenylhydrazone, reference compound], in assay [1], the EC50 worked out at 1000 nM and the Emax is 100%. Further, in assay [2], the “Mito State-4” value was “Ok”.

Regarding `N#CC(C#N)=Cc1c[nH]c2ccc(Cl)cc12` [Example 30, 2-((5-Chloro-1H-Indol-3-Yl)Methylene)Malononitrile], in assay [1], the EC50 stood at 50000 nM and the maximum response (Emax) came out at 100%. Besides, the “Mito State-4” value in assay [2] is listed as “Ok”.

Regarding `N#CC(C#N)=Cc1c(Cl)[nH]c2ccccc12` [Example 34, 2-(2-Chloro-1H-Indol-3-Ylmethylene)-Malononitrile], in assay [1], the EC50 was 400 nM and the Emax worked out at 90%. For the same compound, the “Mito State-4” value in assay [2] is listed as “Ok”.

Turning to `Cc1c(Br)cc(C(C)(C)C)c(O)c1C(=O)Nc1ccc([N+](=O)[O-])cc1Cl` [Example 37, 3-Bromo-5-Tert-Butyl-N-(2-Chloro-4-Nitro-Phenyl)-6-Hydroxy-2-Methyl-Benzamide], in assay [1], the EC50 was 30 nM and the maximal effect (Emax) is 110%. Moreover, the “Mito State-4” value in assay [2] is “Ok”.

`Cc1c(Cl)cc(C(C)(C)C)c(O)c1C(=O)Nc1ccc([N+](=O)[O-])cc1C(F)(F)F` [Example 50, 3-Tert-Butyl-5-Chloro-2-Hydroxy-6-Methyl-N-(4-Nitro-2-Trifluoromethyl-Phenyl)-Benzamide]: in assay [1], the half-maximal effective concentration (EC50) is below 30 nM and the maximum response (Emax) turned out to be 75%. For the same compound, in assay [2], the “Mito State-4” value was “Ok”.

As to `Cc1cc(C(C#N)c2ccc(Cl)cc2)c(Cl)cc1NC(=O)c1c(C)c(Br)cc(C(C)(C)C)c1O` (stereo not drawn) [Example 56, 3-Bromo-5-Tert-Butyl-N-{5-Chloro-4-[(4-Chloro-Phenyl)-Cyano-Methyl]-2-Methyl-Phenyl}-6-Hydroxy-2-Methyl-Benzamide], in assay [1], the EC50 amounted to 8000 nM and the Emax was 105%. Also, the “Mito State-4” value in assay [2] is “Ok”.

As to `Cc1c(Br)cc(C(C)(C)C)c(O)c1C(=O)Nc1ccc([N+](=O)[O-])cc1C(F)(F)F` [Example 58, 3-Bromo-5-Tert-Butyl-6-Hydroxy-2-Methyl-N-(4-Nitro-2-Trifluoromethyl-Phenyl)-Benzamide], in assay [1], the EC50 is below 30 nM and the maximal response (Emax) was 100%. Further, in assay [2], the “Mito State-4” value is recorded as “Ok”.

For `CC(=C(C#N)C#N)c1cc(C(C)(C)C)c(O)c(C(C)(C)C)c1` [Example 75, 2-[1-(3,5-Di-Tert-Butyl-4-Hydroxy-Phenyl)-Ethylidene]-Malononitrile], in assay [1], the EC50 turned out to be 700 nM and the Emax is 75%. Moreover, the “Mito State-4” value in assay [2] is “Ok”.

Consider `CC(C)(C)c1cc(/C=C(\C#N)c2ccc([N+](=O)[O-])cc2)cc(C(C)(C)C)c1O` [Example 77, 3-(3,5-Di-Tert-Butyl-4-Hydroxy-Phenyl)-2-(4-Nitro-Phenyl)-Acrylonitrile], for which, in assay [1], the concentration giving a half-maximal response (EC50) was 1000 nM and the Emax was found to be 110%. In assay [2], the “Mito State-4” value is given as “Ok”.
